Measurements taken from the supplement of paper PMC13207355.

Assays:
Conditions in all cases: exposure time: 72 h
E13 [1] = patient-derived glioblastoma stem cells of classical subtype; assay: surviving fraction (nuclei count normalised to DMSO); higher = more cells surviving (less toxic)
E21 [2] = patient-derived glioblastoma stem cells of mesenchymal subtype; assay: as above
E28 [3] = patient-derived glioblastoma stem cells of classical subtype; assay: as above
E31 [4] = patient-derived glioblastoma stem cells of proneural subtype; assay: as above
E34 [5] = patient-derived glioblastoma stem cells of proneural subtype; assay: as above
E57 [6] = patient-derived glioblastoma stem cells of mesenchymal subtype; assay: as above
FT3469 [7] = normal neural stem cell line; assay: as above
E13 [8] = assay: phenotypic distance (Euclidean, principal components) from DMSO controls (arbitrary units); higher = stronger morphological change
E21 [9] = assay: as above
E28 [10] = assay: as above
E31 [11] = assay: as above
E34 [12] = assay: as above
E57 [13] = assay: as above
FT3469 [14] = assay: as above
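Wherever phenotypic distance (Euclidean, principal components) from DMSO controls is given: cell Painting imaging in 384-well plates, CellProfiler features reduced to at least 20 principal components, Euclidean distance versus same-plate DMSO vehicle wells (0.1% v/v), median over six images per well.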
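Wherever surviving fraction (nuclei count normalised to DMSO) is given: nuclei counted by high-content imaging of Hoechst-stained cells in laminin-coated 384-well plates, relative to 0.1% DMSO vehicle wells, with staurosporine as cell-death control.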

Nc1ccc(-c2ccc3ncc4ccc(=O)n(-c5cccc(C(F)(F)F)c5)c4c3c2)cn1 [Torin2]
Conditions	phenotypic distance	surviving fraction
E13 [1], 4.1 nM	–	0.816
E13 [1], 12.3 nM	–	0.728
E13 [1], 37 nM	–	0.628
E13 [1], 111.1 nM	–	0.537
E13 [1], 333.3 nM	–	0.467
E13 [1], 1000 nM	–	0.434
E13 [1], 3000 nM	–	0.387
E13 [8], 4.1 nM	1.33	–
E13 [8], 12.3 nM	2.1	–
E13 [8], 37 nM	2.69	–
E13 [8], 111.1 nM	3.25	–
E13 [8], 333.3 nM	4.2	–
E13 [8], 1000 nM	4.27	–
E13 [8], 3000 nM	4.72	–
E21 [2], 4.1 nM	–	0.939
E21 [2], 12.3 nM	–	0.836
E21 [2], 37 nM	–	0.924
E21 [2], 111.1 nM	–	0.595
E21 [2], 333.3 nM	–	0.326
E21 [2], 1000 nM	–	0.31
E21 [2], 3000 nM	–	0.252
E21 [9], 4.1 nM	1.71	–
E21 [9], 12.3 nM	2.07	–
E21 [9], 37 nM	2.44	–
E21 [9], 111.1 nM	3.36	–
E21 [9], 333.3 nM	6.2	–
E21 [9], 1000 nM	4.67	–
E21 [9], 3000 nM	5.09	–
E28 [3], 4.1 nM	–	0.829
E28 [3], 12.3 nM	–	0.687
E28 [3], 37 nM	–	0.705
E28 [3], 111.1 nM	–	0.526
E28 [3], 333.3 nM	–	0.534
E28 [3], 1000 nM	–	0.417
E28 [3], 3000 nM	–	0.324
E28 [10], 4.1 nM	1.23	–
E28 [10], 12.3 nM	2.35	–
E28 [10], 37 nM	2.78	–
E28 [10], 111.1 nM	3.06	–
E28 [10], 333.3 nM	2.87	–
E28 [10], 1000 nM	3.67	–
E28 [10], 3000 nM	3.52	–
E31 [4], 4.1 nM	–	0.743
E31 [4], 12.3 nM	–	0.669
E31 [4], 37 nM	–	0.612
E31 [4], 111.1 nM	–	0.386
E31 [4], 333.3 nM	–	0.26
E31 [4], 1000 nM	–	0.234
E31 [4], 3000 nM	–	0.102
E31 [11], 4.1 nM	1.91	–
E31 [11], 12.3 nM	2.08	–
E31 [11], 37 nM	3.12	–
E31 [11], 111.1 nM	4.26	–
E31 [11], 333.3 nM	5.33	–
E31 [11], 1000 nM	5.33	–
E31 [11], 3000 nM	6.15	–
E34 [5], 4.1 nM	–	0.986
E34 [5], 12.3 nM	–	0.84
E34 [5], 37 nM	–	0.809
E34 [5], 111.1 nM	–	0.796
E34 [5], 333.3 nM	–	0.623
E34 [5], 1000 nM	–	0.471
E34 [5], 3000 nM	–	0.424
E34 [12], 4.1 nM	1.56	–
E34 [12], 12.3 nM	2.42	–
E34 [12], 37 nM	2.76	–
E34 [12], 111.1 nM	3.31	–
E34 [12], 333.3 nM	3.09	–
E34 [12], 1000 nM	2.85	–
E34 [12], 3000 nM	3.68	–
E57 [6], 4.1 nM	–	0.892
E57 [6], 12.3 nM	–	0.74
E57 [6], 37 nM	–	0.659
E57 [6], 111.1 nM	–	0.548
E57 [6], 333.3 nM	–	0.424
E57 [6], 1000 nM	–	0.302
E57 [6], 3000 nM	–	0.148
E57 [13], 4.1 nM	1.19	–
E57 [13], 12.3 nM	1.65	–
E57 [13], 37 nM	2.17	–
E57 [13], 111.1 nM	3.47	–
E57 [13], 333.3 nM	4.27	–
E57 [13], 1000 nM	5.35	–
E57 [13], 3000 nM	8.06	–
FT3469 [7], 4.1 nM	–	0.978
FT3469 [7], 12.3 nM	–	0.925
FT3469 [7], 37 nM	–	0.73
FT3469 [7], 111.1 nM	–	0.685
FT3469 [7], 333.3 nM	–	0.769
FT3469 [7], 1000 nM	–	0.685
FT3469 [7], 3000 nM	–	0.527
FT3469 [14], 4.1 nM	1.78	–
FT3469 [14], 12.3 nM	2	–
FT3469 [14], 37 nM	2.85	–
FT3469 [14], 111.1 nM	2.71	–
FT3469 [14], 333.3 nM	3.04	–
FT3469 [14], 1000 nM	2.81	–
FT3469 [14], 3000 nM	3.65	–

CC(C)C[C@@H](C(=O)N[C@H](C(=O)OC1CCCC1)c1ccccc1)[C@H](O)C(=O)NO [Tosedostat]
Conditions	phenotypic distance	surviving fraction
E13 [1], 4.1 nM	–	0.889
E13 [1], 12.3 nM	–	0.853
E13 [1], 37 nM	–	0.863
E13 [1], 111.1 nM	–	1.01
E13 [1], 333.3 nM	–	0.894
E13 [1], 1000 nM	–	0.894
E13 [1], 3000 nM	–	0.934
E13 [8], 4.1 nM	0.738	–
E13 [8], 12.3 nM	0.631	–
E13 [8], 37 nM	1.06	–
E13 [8], 111.1 nM	1.01	–
E13 [8], 333.3 nM	1.39	–
E13 [8], 1000 nM	1.41	–
E13 [8], 3000 nM	1.3	–
E21 [2], 4.1 nM	–	0.858
E21 [2], 12.3 nM	–	0.909
E21 [2], 37 nM	–	0.793
E21 [2], 111.1 nM	–	0.78
E21 [2], 333.3 nM	–	0.772
E21 [2], 1000 nM	–	0.715
E21 [2], 3000 nM	–	0.507
E21 [9], 4.1 nM	0.795	–
E21 [9], 12.3 nM	0.918	–
E21 [9], 37 nM	0.947	–
E21 [9], 111.1 nM	1.11	–
E21 [9], 333.3 nM	1.62	–
E21 [9], 1000 nM	1.49	–
E21 [9], 3000 nM	2.1	–
E28 [3], 4.1 nM	–	0.904
E28 [3], 12.3 nM	–	0.755
E28 [3], 37 nM	–	0.781
E28 [3], 111.1 nM	–	0.846
E28 [3], 333.3 nM	–	0.657
E28 [3], 1000 nM	–	0.692
E28 [3], 3000 nM	–	0.583
E28 [10], 4.1 nM	0.786	–
E28 [10], 12.3 nM	1.24	–
E28 [10], 37 nM	1.27	–
E28 [10], 111.1 nM	1.73	–
E28 [10], 333.3 nM	1.68	–
E28 [10], 1000 nM	2.2	–
E28 [10], 3000 nM	2.09	–
E31 [4], 4.1 nM	–	0.788
E31 [4], 12.3 nM	–	0.935
E31 [4], 37 nM	–	0.7
E31 [4], 111.1 nM	–	0.861
E31 [4], 333.3 nM	–	0.836
E31 [4], 1000 nM	–	0.796
E31 [4], 3000 nM	–	0.683
E31 [11], 4.1 nM	1.18	–
E31 [11], 12.3 nM	0.639	–
E31 [11], 37 nM	1.52	–
E31 [11], 111.1 nM	0.949	–
E31 [11], 333.3 nM	1.01	–
E31 [11], 1000 nM	1.28	–
E31 [11], 3000 nM	1.86	–
E34 [5], 4.1 nM	–	0.968
E34 [5], 12.3 nM	–	0.827
E34 [5], 37 nM	–	0.787
E34 [5], 111.1 nM	–	0.842
E34 [5], 333.3 nM	–	0.662
E34 [5], 1000 nM	–	0.8
E34 [5], 3000 nM	–	0.833
E34 [12], 4.1 nM	0.805	–
E34 [12], 12.3 nM	1.29	–
E34 [12], 37 nM	0.677	–
E34 [12], 111.1 nM	1.91	–
E34 [12], 333.3 nM	1.92	–
E34 [12], 1000 nM	1.4	–
E34 [12], 3000 nM	1.6	–
E57 [6], 4.1 nM	–	0.806
E57 [6], 12.3 nM	–	0.83
E57 [6], 37 nM	–	0.744
E57 [6], 111.1 nM	–	0.679
E57 [6], 333.3 nM	–	0.635
E57 [6], 1000 nM	–	0.708
E57 [6], 3000 nM	–	0.622
E57 [13], 4.1 nM	1.53	–
E57 [13], 12.3 nM	1.55	–
E57 [13], 37 nM	1.95	–
E57 [13], 111.1 nM	2.24	–
E57 [13], 333.3 nM	2.7	–
E57 [13], 1000 nM	2.08	–
E57 [13], 3000 nM	2.7	–
FT3469 [7], 4.1 nM	–	0.843
FT3469 [7], 12.3 nM	–	0.843
FT3469 [7], 37 nM	–	0.774
FT3469 [7], 111.1 nM	–	0.831
FT3469 [7], 333.3 nM	–	0.809
FT3469 [7], 1000 nM	–	0.759
FT3469 [7], 3000 nM	–	0.746
FT3469 [14], 4.1 nM	1.7	–
FT3469 [14], 12.3 nM	1.82	–
FT3469 [14], 37 nM	1.97	–
FT3469 [14], 111.1 nM	1.7	–
FT3469 [14], 333.3 nM	1.92	–
FT3469 [14], 1000 nM	2.23	–
FT3469 [14], 3000 nM	2.64	–
